According to US20230023092A1, “TREATMENT OF DEPRESSION AND OTHER VARIOUS DISORDERS WITH PSILOCYBIN” (COMPASS […], priority 2019, published 2023):

Tests used:
healthy subjects [1] = assay: Pictorial Empathy Test (PET); format: in vivo, human
Method: In some embodiments, the Pictorial Empathy Test (PET) is utilized to evaluate the effect of psilocybin on affective empathy.
The Pictorial Empathy Test (PET), Reading the Mind in the Eyes Test (RMET), Scale of Social Responsibility (SSR), Social Value Orientation (SVO), and Toronto Empathy Questionnaire (TEQ) were performed. Table 20 summarizes the results of the mixed model for repeated measures (MMRM) analysis for each of the aforementioned social cognition panel scales measured on Day 7 and Day 84 after study drug administration.

healthy subjects [2] = assay: Symptom Checklist-90 Item (SCL-90); format: in vivo, human
Source text: In some embodiments, the Symptom Checklist-90 item (SCL-90) questionnaire is used to evaluate the safety and/or efficacy of psilocybin. The SCL-90 is a relatively brief self-report psychometric instrument designed to evaluate a broad range of psychological problems and symptoms of psychopathology. In some embodiments, the SCL-90 is used to assess somatization, obsessive-compulsive behaviors, interpersonal sensitivity, depression, anxiety, hostility, phobic anxiety, paranoid ideation, and psychoticism of a subject treated according to the methods of the disclosure. The 90 items in the questionnaire are scored on a 5-point Likert scale, indicating the rate of occurrence of the symptom during the time reference. In some embodiments, after treating according to the methods of the disclosure, a subject's SCL-90 score decreases by about 5% to about 100%, for example, by about 5%, about 10%, about 15%, about 20%, about 25%, about 30%, about 35%, about 40%, about 45%, about 50%, about 55%, about 60%, about 65%, about 70%, about 75%, about 80%, about 85%, about 90%, about 95%, or about 100%.
The Neuroticism Extraversion Openness-Five Factor Inventory (NEO-FFI) and Symptom Checklist-90 Item (SCL-90) were administered. Details of the MMRM applied to the change from baseline scores for the NEO-FFI and SCL-90 are provided below in Table 2Q.

[3] = Day 7, psilocybin 10 mg - placebo
[4] = Day 7, psilocybin 25 mg - 10 mg
[5] = Day 7, psilocybin 25 mg - placebo
[6] = Day 84, psilocybin 10 mg - placebo
[7] = Day 84, psilocybin 25 mg - 10 mg
[8] = Day 84, psilocybin 25 mg - placebo

## CN(C)CCc1c[nH]c2cccc(OP(=O)(O)O)c12 [Psilocybin, psilocybin]
Healthy subjects [1]; Day 7, psilocybin 10 mg
  PET change from baseline (LS mean): −0.3
Healthy subjects [1]; [3]
  PET change from baseline, LS mean difference: −0.1
Healthy subjects [1]; Day 7, psilocybin 25 mg
  PET change from baseline (LS mean): 0.0
Healthy subjects [1]; [4]
  PET change from baseline, LS mean difference: 0.3
Healthy subjects [1]; [5]
  PET change from baseline, LS mean difference: 0.2
Healthy subjects [1]; Day 84, psilocybin 10 mg
  PET change from baseline (LS mean): −0.3
Healthy subjects [1]; [6]
  PET change from baseline, LS mean difference: −0.1
Healthy subjects [1]; Day 84, psilocybin 25 mg
  PET change from baseline (LS mean): −0.1
Healthy subjects [1]; [7]
  PET change from baseline, LS mean difference: 0.3
Healthy subjects [1]; [8]
  PET change from baseline, LS mean difference: 0.1
Healthy subjects [2]; Day 7, psilocybin 10 mg
  SCL-90-somatisation change from baseline, LS mean: 0.1
  SCL-90 anger hostility change from baseline, LS mean: −0.0
  SCL-90 anxiety change from baseline, LS mean: −0.0
  SCL-90 depression change from baseline, LS mean: 0.0
  SCL-90 interpersonal sensitivity change from baseline, LS mean: −0.0
  SCL-90 obsessive compulsive change from baseline, LS mean: −0.1
  SCL-90 paranoid ideation change from baseline, LS mean: −0.0
  SCL-90 phobic anxiety change from baseline, LS mean: −0.0
  SCL-90 psychoticism change from baseline, LS mean: 0.0
Healthy subjects [2]; [3]
  SCL-90-somatisation change from baseline, LS mean difference: 0.1
  SCL-90 anger hostility change from baseline, LS mean difference: −0.0
  SCL-90 anxiety change from baseline, LS mean difference: −0.0
  SCL-90 depression change from baseline, LS mean difference: 0.0
  SCL-90 interpersonal sensitivity change from baseline, LS mean difference: −0.0
  SCL-90 obsessive compulsive change from baseline, LS mean difference: 0.1
  SCL-90 paranoid ideation change from baseline, LS mean difference: 0.0
  SCL-90 phobic anxiety change from baseline, LS mean difference: −0.0
  SCL-90 psychoticism change from baseline, LS mean difference: 0.0
Healthy subjects [2]; Day 7, psilocybin 25 mg
  SCL-90-somatisation change from baseline, LS mean: 0.1
  SCL-90 anger hostility change from baseline, LS mean: −0.0
  SCL-90 anxiety change from baseline, LS mean: −0.0
  SCL-90 depression change from baseline, LS mean: 0.0
  SCL-90 interpersonal sensitivity change from baseline, LS mean: 0.0
  SCL-90 obsessive compulsive change from baseline, LS mean: −0.1
  SCL-90 paranoid ideation change from baseline, LS mean: 0.1
  SCL-90 phobic anxiety change from baseline, LS mean: 0.0
  SCL-90 psychoticism change from baseline, LS mean: 0.0
Healthy subjects [2]; [4]
  SCL-90-somatisation change from baseline, LS mean difference: −0.0
  SCL-90 anger hostility change from baseline, LS mean difference: 0.0
  SCL-90 anxiety change from baseline, LS mean difference: 0.0
  SCL-90 depression change from baseline, LS mean difference: −0.0
  SCL-90 interpersonal sensitivity change from baseline, LS mean difference: 0.1
  SCL-90 obsessive compulsive change from baseline, LS mean difference: −0.0
  SCL-90 paranoid ideation change from baseline, LS mean difference: 0.1
  SCL-90 phobic anxiety change from baseline, LS mean difference: 0.0
  SCL-90 psychoticism change from baseline, LS mean difference: 0.0
Healthy subjects [2]; [5]
  SCL-90-somatisation change from baseline, LS mean difference: 0.1
  SCL-90 anger hostility change from baseline, LS mean difference: −0.0
  SCL-90 anxiety change from baseline, LS mean difference: 0.0
  SCL-90 depression change from baseline, LS mean difference: 0.0
  SCL-90 interpersonal sensitivity change from baseline, LS mean difference: 0.0
  SCL-90 obsessive compulsive change from baseline, LS mean difference: 0.1
  SCL-90 paranoid ideation change from baseline, LS mean difference: 0.1
  SCL-90 phobic anxiety change from baseline, LS mean difference: 0.0
  SCL-90 psychoticism change from baseline, LS mean difference: 0.0
Healthy subjects [2]; Day 84, psilocybin 10 mg
  SCL-90-somatisation change from baseline, LS mean: 0.0
  SCL-90 anger hostility change from baseline, LS mean: 0.0
  SCL-90 anxiety change from baseline, LS mean: −0.0
  SCL-90 depression change from baseline, LS mean: 0.1
  SCL-90 interpersonal sensitivity change from baseline, LS mean: 0.0
  SCL-90 obsessive compulsive change from baseline, LS mean: −0.0
  SCL-90 paranoid ideation change from baseline, LS mean: 0.1
  SCL-90 phobic anxiety change from baseline, LS mean: 0.0
  SCL-90 psychoticism change from baseline, LS mean: −0.0
Healthy subjects [2]; [6]
  SCL-90-somatisation change from baseline, LS mean difference: 0.0
  SCL-90 anger hostility change from baseline, LS mean difference: −0.0
  SCL-90 anxiety change from baseline, LS mean difference: −0.1
  SCL-90 depression change from baseline, LS mean difference: 0.0
  SCL-90 interpersonal sensitivity change from baseline, LS mean difference: −0.1
  SCL-90 obsessive compulsive change from baseline, LS mean difference: 0.1
  SCL-90 paranoid ideation change from baseline, LS mean difference: 0.1
  SCL-90 phobic anxiety change from baseline, LS mean difference: −0.0
  SCL-90 psychoticism change from baseline, LS mean difference: −0.0
Healthy subjects [2]; Day 84, psilocybin 25 mg
  SCL-90-somatisation change from baseline, LS mean: 0.0
  SCL-90 anger hostility change from baseline, LS mean: 0.0
  SCL-90 anxiety change from baseline, LS mean: −0.0
  SCL-90 depression change from baseline, LS mean: 0.1
  SCL-90 interpersonal sensitivity change from baseline, LS mean: 0.0
  SCL-90 obsessive compulsive change from baseline, LS mean: −0.1
  SCL-90 paranoid ideation change from baseline, LS mean: 0.1
  SCL-90 phobic anxiety change from baseline, LS mean: 0.0
  SCL-90 psychoticism change from baseline, LS mean: 0.0
Healthy subjects [2]; [7]
  SCL-90-somatisation change from baseline, LS mean difference: 0.0
  SCL-90 anger hostility change from baseline, LS mean difference: −0.0
  SCL-90 anxiety change from baseline, LS mean difference: 0.0
  SCL-90 depression change from baseline, LS mean difference: 0.0
  SCL-90 interpersonal sensitivity change from baseline, LS mean difference: 0.0
  SCL-90 obsessive compulsive change from baseline, LS mean difference: −0.1
  SCL-90 paranoid ideation change from baseline, LS mean difference: 0.0
  SCL-90 phobic anxiety change from baseline, LS mean difference: 0.0
  SCL-90 psychoticism change from baseline, LS mean difference: 0.0
Healthy subjects [2]; [8]
  SCL-90-somatisation change from baseline, LS mean difference: 0.0
  SCL-90 anger hostility change from baseline, LS mean difference: −0.0
  SCL-90 anxiety change from baseline, LS mean difference: −0.0
  SCL-90 depression change from baseline, LS mean difference: 0.0
  SCL-90 interpersonal sensitivity change from baseline, LS mean difference: −0.0
  SCL-90 obsessive compulsive change from baseline, LS mean difference: 0.0
  SCL-90 paranoid ideation change from baseline, LS mean difference: 0.1
  SCL-90 phobic anxiety change from baseline, LS mean difference: 0.0
  SCL-90 psychoticism change from baseline, LS mean difference: −0.0
